The source of these data is paper PMC5615155 (Toxicology Reports, 2017).

Read-outs that look alike come from different tables or passages of the source.

A short description of series [1]: in vitro microsomal metabolism. The conditions noted are these: 10 μM, 0.5 mg/mL, +NADPH, 120 min. The class given is in vitro ADME, human.
The nature of series [2]: in vitro microsomal metabolism. The class given is in vitro ADME, Sprague-Dawley rat. The conditions noted are these: 10 μM, 0.5 mg/mL, +NADPH, 120 min.
The next series relates to HPBLs. The settings on record: cited from earlier work.
The subject of series [3] is S. typhimurium strains TA98, TA100, TA1535, TA1537. The conditions noted are these: up to 5000 μg/plate, with and without metabolic activation; cited from earlier work.
For series [4] the following is noted: cited from earlier work.
Another series relates to E. coli strain WP2 uvrA. The conditions noted are these: up to 5000 μg/plate, with and without metabolic activation; cited from earlier work.
The subject of a further series is CHO-WBL cells. The conditions noted are these: ± metabolic activation, up to 2500 μg/mL; cited from earlier work.
The conditions of series [5]: male mice, 2000 mg/kg bw; cited from earlier work.
The conditions of series [6]: Day 1 of 90-day study, cited from earlier work.

Regarding `O=C1CC2(CCCC2)CC(=O)N1CCCCN1CCN(c2ncccn2)CC1` [Buspirone, reference compound], the “% MS (EIC) peak area of parent relative to time 0” value in series [1] came out at 2%; in series [2] it was 21%.
A word on the Cmax: it is the peak of the concentration-time curve. A word on the Tmax: it is the time at which the peak concentration occurs. As for `CC(C)CC(=O)N1CCC[C@H](COc2cccc3c2C(N)=NS(=O)(=O)N3)C1` [S617, (S)-1-(3-(((4-amino-2,2-dioxido-1H-benzo[c][1,2,6]thiadiazin-5-yl)oxy)methyl)piperidin-1-yl)-3-methylbutan-1-one], the chromosome aberration result with HPBLs is recorded as “non-clastogenic”. Moreover, the “bacterial reverse mutation result” value (in [3]; in the series on E. coli strain WP2 uvrA) was “non-mutagenic” in each case. Also, the AUClast was 212 ng·h/mL in [4] (iv 1.0 mg/kg, F); 263 ng·h/mL in series [4] (iv 1.0 mg/kg, M); 36.7 ng·h/mL in series [4] (oral gavage 10 mg/kg, F); 17.5 ng·h/mL in [4] (oral gavage 10 mg/kg, M); 56.3 ng·h/mL in [4] (oral gavage 30 mg/kg, F); 42.5 ng·h/mL in series [4] (oral gavage 30 mg/kg, M). The AUClast in [4] (oral gavage 100 mg/kg, F) was 92.6 ng·h/mL; in series [4] (oral gavage 100 mg/kg, M) it was 53.2 ng·h/mL. For the same compound, the Cmax in [4] (iv 1.0 mg/kg, F) is recorded as 1308 ng/mL; in series [4] (iv 1.0 mg/kg, M), 1663 ng/mL; in [4] (oral gavage 10 mg/kg, F) it was 4.80 ng/mL; in [4] (oral gavage 10 mg/kg, M), 3.30 ng/mL; in series [4] (oral gavage 30 mg/kg, F), 9.40 ng/mL; in series [4] (oral gavage 30 mg/kg, M), 7.10 ng/mL. The Cmax is 18.3 ng/mL in [4] (oral gavage 100 mg/kg, F) and 10.1 ng/mL in series [4] (oral gavage 100 mg/kg, M). Also, the Tmax in series [4] (iv 1.0 mg/kg, F) is recorded as 0.03 h; in [4] (iv 1.0 mg/kg, M), 0.03 h; in series [4] (oral gavage 10 mg/kg, F) it was 0.88 h; in series [4] (oral gavage 10 mg/kg, M), 0.44 h; in [4] (oral gavage 30 mg/kg, F) it was 1.38 h; in series [4] (oral gavage 30 mg/kg, M) it was 1.25 h. Moreover, the Tmax in [4] (oral gavage 100 mg/kg, F) is on record as 0.50 h; in series [4] (oral gavage 100 mg/kg, M), 1.38 h. For the same compound, the “%F” value in [4] (oral gavage 10 mg/kg, F) is 1.73%; in series [4] (oral gavage 10 mg/kg, M) it was 0.67%; in series [4] (oral gavage 30 mg/kg, F) it was 0.89%; in series [4] (oral gavage 30 mg/kg, M), 0.54%; in series [4] (oral gavage 100 mg/kg, F), 0.44%; in series [4] (oral gavage 100 mg/kg, M), 0.20%. In addition, the t1/2 in series [4] (oral gavage 10 mg/kg, F) is listed as 4.25 h; in series [4] (oral gavage 10 mg/kg, M), 3.85 h; in [4] (oral gavage 30 mg/kg, F), 3.57 h; in [4] (oral gavage 30 mg/kg, M), 3.03 h; in [4] (oral gavage 100 mg/kg, F), 1.45 h; in series [4] (oral gavage 100 mg/kg, M) it was 3.48 h. The “in vitro micronucleus result” value in the series on CHO-WBL cells is reported as “neither clastogenic nor aneugenic”.
In the case of `CCCNC(=O)C(C)(C)COc1cccc2c1C(N)=NS(=O)(=O)N2` [S6973, 3-((4-amino-2,2-dioxido-1H-benzo[c][1,2,6]thiadiazin-5-yl)oxy)-2,2-dimethyl-N-propylpropanamide], in series [5], the “in vivo micronucleus result” value is given as “neither clastogenic nor aneugenic”. The entries for the “bioavailability, food ad-mix” value in series [6] (5.0 mg/kg bw) and in series [6] (20 mg/kg bw) were 8.04% and 7.73%, respectively. Besides, the chromosome aberration result with HPBLs is given as “non-clastogenic”. For the same compound, the “bacterial reverse mutation result” value (in series [3]; in the series with E. coli strain WP2 uvrA) was “non-mutagenic” each time. In addition, the AUClast in [4] (iv 2.5 mg/kg, M) is 1760 ng·h/mL; in [4] (oral gavage 5.0 mg/kg, M), 337 ng·h/mL; in series [4] (oral gavage 10 mg/kg, M), 453 ng·h/mL; in series [4] (oral gavage 20 mg/kg, M) it was 553 ng·h/mL. For the same compound, the maximum concentration (Cmax) in series [4] (iv 2.5 mg/kg, M) is reported as 3997 ng/mL; in series [4] (oral gavage 5.0 mg/kg, M), 74.8 ng/mL; in series [4] (oral gavage 10 mg/kg, M), 103 ng/mL; in [4] (oral gavage 20 mg/kg, M) it was 111 ng/mL. Besides, the time of peak concentration (Tmax) in [4] (iv 2.5 mg/kg, M) is recorded as 0.083 h; in series [4] (oral gavage 5.0 mg/kg, M) it was 1.33 h; in [4] (oral gavage 10 mg/kg, M) it was 1.00 h; in [4] (oral gavage 20 mg/kg, M) it was 1.33 h. Also, the t1/2 in [4] (iv 2.5 mg/kg, M) is on record as 0.78 h; in series [4] (oral gavage 5.0 mg/kg, M) it was 3.67 h; in series [4] (oral gavage 10 mg/kg, M) it was 2.98 h; in series [4] (oral gavage 20 mg/kg, M) it was 4.53 h. Also, the “%F” value is 9.56% in series [4] (oral gavage 5.0 mg/kg, M); 6.43% in [4] (oral gavage 10 mg/kg, M); 3.93% in series [4] (oral gavage 20 mg/kg, M).
